Measured values as given in patent publication US20190161451A1, “HERBICIDAL PYRIMIDINE COMPOUNDS” (BASF SE, priority 2016, published 2019).

Tests used:
AMARE = assay: greenhouse experiment, post-emergence treatment; assay type: in vivo, Amaranthus retroflexus; conditions: post-emergence method, scale from 0 to 100
Source text: (§1) The culture containers used were plastic flowerpots containing loamy sand with approximately 3.0% of humus as the substrate. The seeds of the test plants were sown separately for each species.
(§2) For the post-emergence treatment, the test plants were first grown to a height of 3 to 15 cm, depending on the plant habit, and only then treated with the active ingredients which had been suspended or emulsified in water. For this purpose, the test plants were either sown directly and grown in the same containers, or they were first grown separately as seedlings and transplanted into the test containers a few days prior to treatment.
(§3) Depending on the species, the plants were kept at 10-25° C. or 20-35° C., respectively.
(§4) The test period extended over 2 to 4 weeks. During this time, the plants were tended, and their response to the individual treatments was evaluated.
(§5) Evaluation was carried out using a scale from 0 to 100. 100 means no emergence of the plants, or complete destruction of at least the aerial moieties, and 0 means no damage, or normal course of growth. A good herbicidal activity is given at values of at least 70 and a very good herbicidal activity is given at values of at least 85.
(§6) The plants used in the greenhouse experiments were of the following species: […]

APESV = assay: greenhouse experiment, pre-emergence treatment; assay type: in vivo, Apera spica-venti; conditions: pre-emergence method, scale from 0 to 100
Source text: as §1
(§7) For the pre-emergence treatment, the active ingredients, which had been suspended or emulsified in water, were applied directly after sowing by means of finely distributing nozzles.
(§8) The containers were irrigated gently to promote germination and growth and subsequently covered with transparent plastic hoods until the plants had rooted. This cover caused uniform germination of the test plants, unless this had been impaired by the active ingredients.
as §3, §4, §5, §6

ECHCG [1] = assay: greenhouse experiment, pre-emergence treatment; assay type: in vivo, Echinocloa crus-galli; conditions: pre-emergence method, scale from 0 to 100
Source text: as §1, §7, §8, §3, §4, §5, §6

ALOMY = assay: greenhouse experiment, post-emergence treatment; assay type: in vivo, Alopecurus myosuroides; conditions: post-emergence method, scale from 0 to 100
Source text: as §1, §2, §3, §4, §5, §6

ECHCG [2] = assay: greenhouse experiment, post-emergence treatment; assay type: in vivo, Echinocloa crus-galli; conditions: post-emergence method, scale from 0 to 100
Source text: as §1, §2, §3, §4, §5, §6

SETVI = assay: greenhouse experiment, post-emergence treatment; assay type: in vivo, Setaria viridis; conditions: post-emergence method, scale from 0 to 100
Source text: as §1, §2, §3, §4, §5, §6

ABUTH = assay: greenhouse experiment, post-emergence treatment; assay type: in vivo, Abutilon theophrasti; conditions: post-emergence method, application rate 1000 g/ha, scale from 0 to 100
Source text: as §1, §2, §3, §4, §5, §6

| Compound | herbicidal activity against ECHCG (ECHCG [1]; application rate 1000 g/ha) | herbicidal activity against ALOMY (ALOMY; application rate 1000 g/ha) | herbicidal activity against ECHCG (ECHCG [2]; application rate 1000 g/ha) | also measured |
| --- | --- | --- | --- | --- |
| O=C(O)c1nc(C2CC2)ncc1-c1cccc2c1OC(F)(F)O2 [example 2, 2-Cyclopropyl-5-(2,2-difluoro-1,3-benzodioxol-4-yl)pyrimidine-4-carboxylic Acid] | very good (a very good herbicidal activity is given at values of at least 85) | very good (a very good herbicidal activity is given at values of at least 85) |  | herbicidal activity against AMARE (AMARE; application rate 1000 g/ha): very good (a very good herbicidal activity is given at values of at least 85); herbicidal activity against APESV (APESV; application rate 1000 g/ha): very good (a very good herbicidal activity is given at values of at least 85) |
| COC(=O)c1nc(C2CC2)ncc1-c1c(Cl)sc2ccccc12 [example 4] | good (A good herbicidal activity is given at values of at least 70) | very good (a very good herbicidal activity is given at values of at least 85) |  |  |
| O=C(O)c1nc(C2CC2)ncc1-c1cccc2c1OCC2 [example 5] | good (A good herbicidal activity is given at values of at least 70) |  | good (A good herbicidal activity is given at values of at least 70) |  |
| COC(=O)c1nc(C2CC2)ncc1-c1cc2c(cc1Cl)OCO2 [example 9] |  |  | very good (a very good herbicidal activity is given at values of at least 85) |  |
| O=C(O)c1nc(C2CC2)ncc1-c1cc2c(cc1Cl)OCO2 [example 10] | very good (a very good herbicidal activity is given at values of at least 85) | very good (a very good herbicidal activity is given at values of at least 85) | good (A good herbicidal activity is given at values of at least 70) | herbicidal activity against APESV (APESV; application rate 1000 g/ha): very good (a very good herbicidal activity is given at values of at least 85) |
| COC(=O)c1nc(C2CC2)ncc1-c1c(Cl)ccc2c1OCO2 [example 11] | very good (a very good herbicidal activity is given at values of at least 85) | very good (a very good herbicidal activity is given at values of at least 85) |  | herbicidal activity against AMARE (AMARE; application rate 1000 g/ha): good (A good herbicidal activity is given at values of at least 70) |
| COC(=O)c1nc(C2CC2)ncc1-c1csc2ccccc12 [example 12, Methyl 5-(benzothiophen-3-yl)-2-cyclopropyl-pyrimidine-4-carboxylate] |  |  |  | herbicidal activity against ECHCG (ECHCG [1]; application rate 2000 g/ha): very good (a very good herbicidal activity is given at values of at least 85) |
| O=C(O)c1nc(C2CC2)ncc1-c1csc2ccccc12 [example 13] |  |  |  | herbicidal activity against AMARE (AMARE; application rate 2000 g/ha): very good (a very good herbicidal activity is given at values of at least 85); herbicidal activity against ECHCG (ECHCG [2]; application rate 2000 g/ha): good (A good herbicidal activity is given at values of at least 70); herbicidal activity against ECHCG (ECHCG [1]; application rate 2000 g/ha): very good (a very good herbicidal activity is given at values of at least 85); herbicidal activity against ALOMY (ALOMY; application rate 2000 g/ha): good (A good herbicidal activity is given at values of at least 70) |
| COC(=O)c1nc(C2CC2)ncc1-c1coc2ccccc12 [example 15] | very good (a very good herbicidal activity is given at values of at least 85) |  |  | herbicidal activity against SETVI (SETVI; application rate 1000 g/ha): very good (a very good herbicidal activity is given at values of at least 85) |
| O=C(O)c1nc(C2CC2)ncc1-c1coc2ccccc12 [example 16] |  |  |  | herbicidal activity against ECHCG (ECHCG [2]; application rate 2000 g/ha): good (A good herbicidal activity is given at values of at least 70); herbicidal activity against APESV (APESV; application rate 2000 g/ha): very good (a very good herbicidal activity is given at values of at least 85); herbicidal activity against ECHCG (ECHCG [1]; application rate 2000 g/ha): very good (a very good herbicidal activity is given at values of at least 85) |
| COC(=O)c1nc(C2CC2)ncc1-c1c(Cl)sc2ccccc12 [example 17, Methyl 5-(2-chlorobenzothiophen-3-yl)-2-cyclopropyl-pyrimidine-4-carboxylate] |  |  |  | herbicidal activity against SETVI (SETVI; application rate 2000 g/ha): very good (a very good herbicidal activity is given at values of at least 85) |
| COC(=O)c1nc(C2CC2)ncc1-c1c(Cl)oc2ccccc12 [example 19] |  |  |  | herbicidal activity against ALOMY (ALOMY; application rate 2000 g/ha): good (A good herbicidal activity is given at values of at least 70) |
| O=C(O)c1nc(C2CC2)ncc1-c1c(Cl)oc2ccccc12 [example 20] |  |  |  | herbicidal activity against APESV (APESV; application rate 2000 g/ha): very good (a very good herbicidal activity is given at values of at least 85) |
| COC(=O)c1nc(C2CC2)ncc1-c1cc2c(cc1Br)OCO2 [example 24] |  | very good (a very good herbicidal activity is given at values of at least 85) | very good (a very good herbicidal activity is given at values of at least 85) |  |
| COC(=O)c1nc(C2CC2)ncc1-c1cc2c(cc1I)OCO2 [example 28] | very good (a very good herbicidal activity is given at values of at least 85) | good (A good herbicidal activity is given at values of at least 70) | good (A good herbicidal activity is given at values of at least 70) |  |
| O=C(O)c1nc(C2CC2)ncc1-c1cc2c(cc1I)OCO2 [example 29] |  |  |  | herbicidal activity against AMARE (AMARE; application rate 1000 g/ha): very good (a very good herbicidal activity is given at values of at least 85) |
| COC(=O)c1nc(C2CC2)ncc1-c1cccc2c1OCCO2 [example 30] |  |  |  | herbicidal activity against AMARE (AMARE; application rate 1000 g/ha): very good (a very good herbicidal activity is given at values of at least 85) |
| O=C(O)c1nc(C2CC2)ncc1-c1cccc2c1OCCO2 [example 31] | very good (a very good herbicidal activity is given at values of at least 85) |  | very good (a very good herbicidal activity is given at values of at least 85) | herbicidal activity against AMARE (AMARE; application rate 1000 g/ha): very good (a very good herbicidal activity is given at values of at least 85); herbicidal activity against APESV (APESV; application rate 1000 g/ha): very good (a very good herbicidal activity is given at values of at least 85) |
| COC(=O)c1nc(C2CC2)ncc1-c1c(Cl)cc2c(c1F)OCO2 [example 32] | very good (a very good herbicidal activity is given at values of at least 85) | good (A good herbicidal activity is given at values of at least 70) | good (A good herbicidal activity is given at values of at least 70) |  |
| O=C(O)c1nc(C2CC2)ncc1-c1c(Cl)cc2c(c1F)OCO2 [example 33] | very good (a very good herbicidal activity is given at values of at least 85) | good (A good herbicidal activity is given at values of at least 70) | very good (a very good herbicidal activity is given at values of at least 85) | herbicidal activity against APESV (APESV; application rate 1000 g/ha): very good (a very good herbicidal activity is given at values of at least 85) |
| COC(=O)c1nc(C2CC2)ncc1-c1c(Cl)cc2c(c1OC)OCO2 [example 35] |  |  |  | herbicidal activity against ABUTH (ABUTH): very good (a very good herbicidal activity is given at values of at least 85) |
| COc1c2c(cc(Cl)c1-c1cnc(C3CC3)nc1C(=O)O)OCO2 [example 36] |  | very good (a very good herbicidal activity is given at values of at least 85) | very good (a very good herbicidal activity is given at values of at least 85) | herbicidal activity against APESV (APESV; application rate 1000 g/ha): very good (a very good herbicidal activity is given at values of at least 85) |
